The values below come from ChEMBL document CHEMBL4376868, “Structure-Activity Relationship Study of Novel 6-Aryl-2-benzoyl-pyridines as Tubulin Polymerization Inhibitors with Potent Antiproliferative Properties” (J Med Chem, 2020).

One assay relates to MDA-MB-231. Briefly: Antiproliferative activity against human MDA-MB-231 cells measured after 72 hrs by MTS assay. It counts as functional, cell-based. The following applies: MDA-MB-231, 72 h. For orientation: Tetrazolium dyes change colour on reduction, which living cells bring about.
The next assay deals with MDA-MB-453. Briefly: Antiproliferative activity against human MDA-MB-453 cells measured after 72 hrs by MTS assay. It counts as functional, cell-based. The following applies: MDA-MB-453, 72 h.
A further assay concerns SK-BR-3. Briefly: Antiproliferative activity against human SK-BR-3 cells measured after 72 hrs by MTS assay. It counts as functional, cell-based. The following applies: SK-BR-3, 72 h.
The subject of another assay is A-375. Briefly: Antiproliferative activity against human A375 cells measured after 72 hrs by MTS assay. Conditions: A-375, 72 h. It counts as functional, cell-based.
The test system of a further assay is M14. The assay is described as follows: Antiproliferative activity against human M14 cells measured after 72 hrs by MTS assay. It counts as functional, cell-based. The following applies: M14, 72 h.
The test system of the next assay is RPMI-7951. The assay is described as follows: Antiproliferative activity against human RPMI7951 cells measured after 72 hrs by MTS assay. It counts as functional, cell-based. Conditions: RPMI-7951, 72 h.
A further assay concerns the target Tubulin (Sus scrofa) (UniProt P02554+P02550). Briefly: Inhibition of porcine brain tubulin polymerization at 10 uM measured at 30 secs interval for 65 mins by spectrophotometric method.

What is called IC50 is the point on the concentration scale where inhibition reaches its midpoint. Low readings indicate inhibition by little substance, high ones a need for much substance.

The source made the active and inactive calls. No cut-off for these calls is given here.

Tubulin (Sus scrofa), sequence (P02550 whole entry, looked up): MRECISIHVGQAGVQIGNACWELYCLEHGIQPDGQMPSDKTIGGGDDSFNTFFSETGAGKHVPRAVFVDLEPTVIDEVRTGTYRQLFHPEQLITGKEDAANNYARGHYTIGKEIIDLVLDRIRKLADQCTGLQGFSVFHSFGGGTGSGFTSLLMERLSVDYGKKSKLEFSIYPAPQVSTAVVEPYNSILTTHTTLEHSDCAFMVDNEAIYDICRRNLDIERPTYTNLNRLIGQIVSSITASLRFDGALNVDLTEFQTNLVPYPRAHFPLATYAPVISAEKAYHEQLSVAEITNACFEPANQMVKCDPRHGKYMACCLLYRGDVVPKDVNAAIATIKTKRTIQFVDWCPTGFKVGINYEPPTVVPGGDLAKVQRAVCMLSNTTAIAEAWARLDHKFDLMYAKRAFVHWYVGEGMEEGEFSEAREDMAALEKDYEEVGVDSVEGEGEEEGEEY
Tubulin (Sus scrofa), sequence (P02554 whole entry, looked up): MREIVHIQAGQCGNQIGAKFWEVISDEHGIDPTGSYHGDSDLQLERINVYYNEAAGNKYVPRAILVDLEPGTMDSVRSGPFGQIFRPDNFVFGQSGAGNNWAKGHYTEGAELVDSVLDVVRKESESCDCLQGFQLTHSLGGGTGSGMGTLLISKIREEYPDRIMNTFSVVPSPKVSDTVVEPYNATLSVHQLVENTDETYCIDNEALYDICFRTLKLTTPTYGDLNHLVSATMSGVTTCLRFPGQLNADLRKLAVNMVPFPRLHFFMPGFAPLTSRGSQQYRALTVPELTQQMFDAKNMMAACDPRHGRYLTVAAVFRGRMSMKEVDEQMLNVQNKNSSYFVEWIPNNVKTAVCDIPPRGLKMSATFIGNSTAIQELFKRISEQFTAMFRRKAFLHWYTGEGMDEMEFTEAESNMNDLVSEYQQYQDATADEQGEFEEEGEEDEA

For the compound `COc1cc(C(=O)c2cccc(-c3ccc(F)cc3)n2)cc(OC)c1OC`, the IC50 in the assay on MDA-MB-231 was 20.7 nM; with MDA-MB-453, 21.4 nM; with SK-BR-3, 36.6 nM; in the assay with A-375 it was 25 nM; in the assay on M14 it was 15.4 nM; in the assay on RPMI-7951, 23.2 nM.
For `COc1cc(C(=O)c2cccc(-c3ccc(C)c(O)c3)c2)cc(OC)c1OC`, the IC50 in the assay with MDA-MB-231 is 35.9 nM; with MDA-MB-453, 15.6 nM; in the assay on SK-BR-3 it was 20 nM; with A-375 it was 27.4 nM; in the assay with M14, 16.2 nM; in the assay with RPMI-7951 it was 15.7 nM.
With `COc1cc(C(=O)c2cccc(-c3ccsc3)n2)cc(OC)c1OC`, the IC50 with MDA-MB-231 is 35.5 nM; with MDA-MB-453, 38.5 nM; in the assay on SK-BR-3 it was 67.3 nM; with A-375, 34.1 nM; with M14, 28.3 nM; in the assay on RPMI-7951, 27.9 nM.
As for `COc1cc(C(=O)c2cc(C)cc(-c3ccc(C)c(O)c3)n2)cc(OC)c1OC`, the IC50 turned out to be 17.2 nM with MDA-MB-231; 17.8 nM with MDA-MB-453; 15 nM with SK-BR-3; 18.1 nM with A-375; 22.3 nM with M14; 17.1 nM with RPMI-7951.
With `COc1cc(C(=O)c2cccc(-c3cccc(O)c3)n2)cc(OC)c1OC`, the IC50 in the assay with MDA-MB-231 stood at 41.4 nM; in the assay with MDA-MB-453, 29.1 nM; in the assay on SK-BR-3, 101 nM; in the assay with A-375, 35.8 nM; with M14, 31.4 nM; with RPMI-7951, 29.9 nM.
Consider `COc1cc(C(=O)c2cnc(-c3c[nH]c4ccccc34)[nH]2)cc(OC)c1OC` [SABIZABULIN], for which the IC50 with MDA-MB-231 was 8.2 nM; in the assay with MDA-MB-453 it was 13.6 nM; in the assay on SK-BR-3, 13.3 nM; in the assay on A-375 it was 10.4 nM; in the assay on M14 it was 8.9 nM; in the assay with RPMI-7951, 8.8 nM.
On to `COc1ccc(-c2cccc(C(=O)c3cc(OC)c(OC)c(OC)c3)n2)cc1`, for which the IC50 in the assay on MDA-MB-231 came to 50.7 nM; with MDA-MB-453, 18.1 nM; in the assay on SK-BR-3 it was 19.9 nM; in the assay with A-375, 27.8 nM; with M14, 27.4 nM; in the assay on RPMI-7951 it was 32.1 nM.
As to `COc1cc(C(=O)c2cccc(-c3ccc(N)cc3)n2)cc(OC)c1OC`, the IC50 amounted to 27.1 nM with MDA-MB-231; 13.4 nM in the assay with MDA-MB-453; 16.2 nM in the assay on SK-BR-3; 13.2 nM in the assay with A-375; 12.1 nM in the assay on M14; 9.4 nM in the assay on RPMI-7951.
As to `COc1cc(C(=O)c2cccc(-c3c(C)cc(C)cc3C)n2)cc(OC)c1OC`, the IC50 with MDA-MB-231, with MDA-MB-453, with SK-BR-3, in the assay on A-375, with M14 and with RPMI-7951 was over 1000 nM each time.
Consider `COc1cc(C(=O)c2cccc(-c3cc(OC)c(OC)c(OC)c3)n2)cc(OC)c1OC`, for which the IC50 in the assay with MDA-MB-231, in the assay on MDA-MB-453, in the assay with SK-BR-3, with A-375, with M14 and in the assay with RPMI-7951 was over 1000 nM throughout.
For the compound `COc1cc(C(=O)c2cccc(-c3cccnc3)n2)cc(OC)c1OC`, the IC50 in the assay with MDA-MB-231 turned out to be 66.5 nM; with MDA-MB-453 it was 102 nM; with SK-BR-3, 109 nM; in the assay with A-375, 60.1 nM; with M14, 55.3 nM; with RPMI-7951, 51.9 nM.
In the case of `COc1cc(C(=O)c2cccc(-c3cccc([N+](=O)[O-])c3)n2)cc(OC)c1OC`, the IC50 in the assay on MDA-MB-231 was found to be 328 nM; in the assay with MDA-MB-453 it was 881 nM; in the assay on SK-BR-3 it was 736 nM; with A-375, 311 nM; in the assay with M14 it was 87.9 nM; with RPMI-7951, 54.7 nM.
As to `COc1cc(C(=O)c2cccc(-c3ccc(C)c(N)c3)n2)cc(OC)c1OC`, the IC50 in the assay with MDA-MB-231 came to 2.8 nM; with MDA-MB-453 it was 2.9 nM; in the assay with SK-BR-3, 1.6 nM; with A-375 it was 3 nM; in the assay with M14 it was 3 nM; in the assay on RPMI-7951 it was 2 nM.
For the compound `COc1cc(C(=O)c2cccc(-c3ccc4[nH]ccc4c3)n2)cc(OC)c1OC`, the IC50 with MDA-MB-231 was found to be 17.7 nM; in the assay with MDA-MB-453 it was 14.9 nM; with SK-BR-3, 14.9 nM; in the assay on A-375, 7 nM; in the assay with M14 it was 6.7 nM; with RPMI-7951 it was 7.4 nM.
For the compound `COc1cc(C(=O)c2cccc(-c3cccc(C)c3)n2)cc(OC)c1OC`, the IC50 in the assay with MDA-MB-231 came to 82.4 nM; with MDA-MB-453 it was 63.6 nM; with SK-BR-3 it was 61 nM; in the assay with A-375 it was 62.9 nM; with M14, 46.1 nM; with RPMI-7951, 60.7 nM.
With `COc1cc(C(=O)c2c[nH]c(-c3ccc(C)cc3)n2)cc(OC)c1OC`, the IC50 is 25.3 nM with MDA-MB-231; 11.4 nM in the assay with MDA-MB-453; 12.5 nM in the assay with SK-BR-3; 18.7 nM in the assay on A-375; 6.9 nM in the assay with M14; 6.4 nM in the assay on RPMI-7951. The inhibition entry at Tubulin (Sus scrofa) is “Active”.
As to `COc1cc(C(=O)c2cccc(-c3cncc4ccccc34)n2)cc(OC)c1OC`, the half-maximal inhibitory concentration (IC50) in the assay with MDA-MB-231, in the assay on MDA-MB-453, with SK-BR-3, in the assay on A-375, with M14 and in the assay with RPMI-7951 was over 1000 nM each time.
Consider `C=C(c1cc(OC)c(OC)c(OC)c1)c1cccc(-c2ccc(C)cc2)n1`, for which the IC50 was found to be 159 nM with MDA-MB-231; 155 nM with MDA-MB-453; 186 nM in the assay with SK-BR-3; 207 nM in the assay on A-375; 167 nM in the assay with M14; 154 nM in the assay on RPMI-7951.
In the case of `COc1cc(C(=O)c2cccc(-c3ccc(C)c(C)c3)n2)cc(OC)c1OC`, the IC50 came to 20 nM in the assay with MDA-MB-231; 15.8 nM in the assay with MDA-MB-453; 8.8 nM in the assay with SK-BR-3; 9 nM with A-375; 8.1 nM in the assay on M14; 8.4 nM in the assay on RPMI-7951.
In the case of `COc1cc(C(=O)c2cccc(-c3ccc(C(C)=O)cc3)n2)cc(OC)c1OC`, the IC50 is 104 nM with MDA-MB-231; 19.1 nM with MDA-MB-453; 18.8 nM in the assay on SK-BR-3; 24 nM in the assay with A-375; 22.5 nM in the assay on M14; 40.5 nM in the assay with RPMI-7951.
For the compound `COc1cc(C(=O)c2cncc(-c3ccc(C)c(O)c3)c2)cc(OC)c1OC`, the IC50 came to 66.3 nM with MDA-MB-231; 64.8 nM with MDA-MB-453; 62.7 nM in the assay on SK-BR-3; 60.6 nM with A-375; 57.1 nM in the assay with M14; 63.6 nM in the assay on RPMI-7951.
On to `COc1cc(C(=O)c2cccc(-c3ccc(C(F)(F)F)cc3)n2)cc(OC)c1OC`, for which the IC50 with MDA-MB-231 came to 23.6 nM; in the assay with MDA-MB-453 it was 7.9 nM; in the assay with SK-BR-3, 7 nM; with A-375, 19.8 nM; in the assay on M14, 21.4 nM; with RPMI-7951, 19.6 nM.
In the case of `COc1cc(C(=O)c2cccc(-c3ccc(C)c(F)c3)n2)cc(OC)c1OC`, the concentration for half-maximal inhibition (IC50) in the assay on MDA-MB-231 is 6.5 nM; in the assay on MDA-MB-453 it was 6.5 nM; in the assay on SK-BR-3, 4.4 nM; in the assay with A-375 it was 5.9 nM; in the assay on M14, 6.7 nM; in the assay with RPMI-7951, 5.6 nM.
Turning to `COc1cc(C(=O)c2cccc(-c3ccncc3)n2)cc(OC)c1OC`, the IC50 in the assay with MDA-MB-231, in the assay on MDA-MB-453, with SK-BR-3, with A-375, with M14 and in the assay on RPMI-7951 was over 1000 nM in each case.
`COc1cccc(-c2cccc(C(=O)c3cc(OC)c(OC)c(OC)c3)n2)c1`: the IC50 in the assay with MDA-MB-231 came out at 41.4 nM; in the assay with MDA-MB-453 it was 24.5 nM; with SK-BR-3 it was 42.4 nM; in the assay with A-375 it was 41.3 nM; in the assay on M14, 34.7 nM; in the assay with RPMI-7951, 42.3 nM.
For `COc1cc(C(=O)c2cccc(-c3ccc(C)cc3)n2)cc(OC)c1OC`, the IC50 was 4.9 nM in the assay with MDA-MB-231; 5 nM with MDA-MB-453; 4.8 nM in the assay with SK-BR-3; 5.9 nM in the assay with A-375; 4.9 nM in the assay with M14; 7.2 nM with RPMI-7951. In addition, the inhibition result at Tubulin (Sus scrofa) was “Active”.
Turning to `COc1cc(C(=O)c2cccc(-c3ccc(C(N)=O)cc3)n2)cc(OC)c1OC`, the half-inhibitory concentration (IC50) came to 39.2 nM with MDA-MB-231; 76.3 nM in the assay on MDA-MB-453; 66.5 nM with SK-BR-3; 87.4 nM in the assay on A-375; 47.9 nM with M14; 36.3 nM in the assay with RPMI-7951.
With `COc1cc(C(=O)c2cc(-c3ccc(C)cc3)ccn2)cc(OC)c1OC`, the IC50 with MDA-MB-231 was determined as 35.2 nM; with MDA-MB-453, 7.1 nM; in the assay on SK-BR-3, 12 nM; in the assay on A-375, 15.6 nM; in the assay with M14, 16.3 nM; with RPMI-7951, 19.8 nM.
For `COc1cc(C(=O)c2ccccn2)cc(OC)c1OC`, the IC50 in the assay on MDA-MB-231, in the assay with MDA-MB-453, in the assay on SK-BR-3, in the assay with A-375, in the assay with M14 and with RPMI-7951 was over 1000 nM in each case.
With `COc1cc(C(=O)c2cccc(-c3ccnc4ccccc34)n2)cc(OC)c1OC`, the IC50 in the assay on MDA-MB-231, in the assay with MDA-MB-453, in the assay with SK-BR-3, in the assay on A-375, in the assay with M14 and in the assay with RPMI-7951 was over 1000 nM in each case.
For `COc1cc(C(=O)c2cccc(-c3ccccc3C)n2)cc(OC)c1OC`, the IC50 is 91.9 nM in the assay on MDA-MB-231; 58.3 nM in the assay on MDA-MB-453; 68 nM in the assay on SK-BR-3; 52.5 nM in the assay with A-375; 27.4 nM with M14; 54.2 nM in the assay with RPMI-7951.
As for `COc1cc(C(=O)c2cccc(-c3cccc4[nH]ccc34)n2)cc(OC)c1OC`, the IC50 in the assay with MDA-MB-231 was found to be 17.9 nM; in the assay on MDA-MB-453 it was 16 nM; with SK-BR-3, 19 nM; in the assay with A-375 it was 9.3 nM; in the assay on M14, 12.2 nM; in the assay on RPMI-7951, 6.5 nM.
